The target of one test is human orexin-1 receptor (Homo sapiens (Human), UniProt O43613). The test can be described thus: In vitro assay: intracellular calcium measurements (FLIPR), antagonistic activity. The test is classed as cell-based. The following applies: CHO cells expressing human orexin-1 receptor, orexin-A agonist, geometric mean, read-out: IC50 Ox1. An outline of the steps: (§1)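 Read-out: FLIPR fluo-4 calcium peak height in CHO cells bearing human orexin-1 or orexin-2 receptor, relative to orexin-A (approx. EC70) with vehicle. Antagonist preincubation 120 min; agonist orexin-A at 3 nM final. IC50 possibly normalized to an on-plate reference compound.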
human orexin-1 receptor, sequence (O43613 whole entry): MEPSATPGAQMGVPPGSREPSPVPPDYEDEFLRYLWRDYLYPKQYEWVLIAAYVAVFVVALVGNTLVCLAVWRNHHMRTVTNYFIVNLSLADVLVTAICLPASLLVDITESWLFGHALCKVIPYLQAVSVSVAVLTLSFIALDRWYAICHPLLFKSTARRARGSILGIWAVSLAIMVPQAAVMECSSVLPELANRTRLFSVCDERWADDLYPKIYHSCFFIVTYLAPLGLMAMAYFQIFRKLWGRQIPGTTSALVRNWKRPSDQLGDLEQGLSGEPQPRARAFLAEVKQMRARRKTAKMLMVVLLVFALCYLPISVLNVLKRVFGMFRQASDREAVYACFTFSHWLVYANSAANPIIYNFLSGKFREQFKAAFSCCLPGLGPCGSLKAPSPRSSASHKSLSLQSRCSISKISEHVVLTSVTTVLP

In the next test the target is human orexin-2 receptor (Homo sapiens (Human), UniProt O43614). The description is as above. The test is classed as cell-based. The following applies: CHO cells expressing human orexin-2 receptor, orexin-A agonist, geometric mean, read-out: IC50 Ox2. The gist of the method:
as §1

This note sets out measurements from patent US9732075B2, “Benzimidazole-proline derivatives” (IDORSIA PHARMACEUTICALS LTD, priority 2012, dated 2017).

human orexin-2 receptor, sequence (O43614 whole entry): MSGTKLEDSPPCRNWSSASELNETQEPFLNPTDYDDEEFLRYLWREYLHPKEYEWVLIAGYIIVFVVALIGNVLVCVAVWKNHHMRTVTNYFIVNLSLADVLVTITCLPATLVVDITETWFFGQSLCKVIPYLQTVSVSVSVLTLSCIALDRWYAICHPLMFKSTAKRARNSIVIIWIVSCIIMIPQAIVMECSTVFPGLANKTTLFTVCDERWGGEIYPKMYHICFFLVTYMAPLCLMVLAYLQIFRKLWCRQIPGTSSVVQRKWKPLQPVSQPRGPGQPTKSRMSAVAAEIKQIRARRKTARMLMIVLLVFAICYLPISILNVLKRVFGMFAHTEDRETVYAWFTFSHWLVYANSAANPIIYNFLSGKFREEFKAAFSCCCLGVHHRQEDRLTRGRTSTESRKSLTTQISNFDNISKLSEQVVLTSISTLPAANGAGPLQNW

With `Cc1ccc(-n2nccn2)c(C(=O)N2CCC[C@@]2(C)c2nc3c(Br)cc(F)cc3[nH]2)c1` [Ex. 5.25], the half-maximal inhibitory concentration (IC50) (commonly the concentration that gives 50% inhibition) was found to be 27 nM on human orexin-1 receptor and 81 nM on human orexin-2 receptor.
With `CSc1cccc2nc([C@@H]3CCCN3C(=O)c3ccccc3-n3nccn3)[nH]c12` [Ex. 1.76], the IC50 came to 279 nM on human orexin-1 receptor and 17 nM on human orexin-2 receptor.
The like results for `Cc1nc(C(=O)N2CC[C@H](C)[C@H]2c2nc3cccc(C)c3[nH]2)c(-c2ccccc2)s1` [Ex. 4.4] were, in that order, 11 nM and 1170 nM.
In the same order, the values of `Cc1c(Cl)ccc2nc([C@]3(C)CCCN3C(=O)c3nc(-c4ccccc4)sc3-c3ccc(F)cc3)[nH]c12` [Ex. 5.226] are 7 nM and 155 nM.
The like results for `Cc1nc(C(=O)N2CC[C@H](C)[C@H]2c2nc3c(C)c(Cl)ccc3[nH]2)c(-c2cccc(Cl)c2)s1` [Ex. 4.21] were, in that order, 1 nM and 133 nM.
As for `C=C1C[C@@H](c2nc3cccc(C)c3[nH]2)N(C(=O)c2nc(C)ccc2-n2cccn2)C1` [Ex. 6.105], the IC50 at human orexin-1 receptor amounted to 1060 nM; at human orexin-2 receptor, 77 nM.
As for `COc1cccc(-c2ccccc2C(=O)N2CCC[C@@]2(C)c2nc3c(C)c(C)ccc3[nH]2)c1` [Ex. 5.117], the IC50 at human orexin-1 receptor is 57 nM; at human orexin-2 receptor, 38 nM.
`C=C1CC(c2nc3cc(C)c(C)cc3[nH]2)N(C(=O)c2nc(C3CC3)sc2-c2cccc(C)c2)C1` (stereo not shown) [Ex. 6.90]: the half-inhibitory concentration (IC50) came out at 6 nM on human orexin-1 receptor and 1 nM on human orexin-2 receptor.
On to `CCn1c([C@]2(C)CCCN2C(=O)c2ccc(C)cc2-n2nccn2)nc2cc(C)c(C)cc21` [Ex. 7.12], for which the IC50 at human orexin-1 receptor worked out at 15 nM; on human orexin-2 receptor it was 52 nM.
As to `C=C1C[C@@H](c2nc3cc(OC)ccc3[nH]2)N(C(=O)c2nc(N(C)C)sc2-c2ccc(C)c(C)c2)C1` [Ex. 6.27], the IC50 on human orexin-1 receptor turned out to be 5 nM; on human orexin-2 receptor it was 9 nM.
The like results for `C=C1CN(C(=O)c2nc(N(C)C)sc2-c2cccc(Cl)c2)C(C)(c2nc3cc(OC)ccc3[nH]2)C1` (stereo not shown) [Ex. 6.152] were, in that order, 5 nM and 20 nM.
In the case of `CO[C@@H]1C[C@@H](c2nc3ccc(Cl)c(C)c3[nH]2)N(C(=O)c2ccccc2-c2ccccc2)C1` [Ex. 3.39], the IC50 on human orexin-1 receptor came to 74 nM; at human orexin-2 receptor, 57 nM.
The like results for `CO[C@@H]1C[C@@H](c2nc3c(C)cccc3[nH]2)N(C(=O)c2nc(C)sc2-c2cccc(Cl)c2)C1` [Ex. 3.7] were, in that order, 9 nM and 5 nM.
The like results for `Cc1ccc(-c2cccc(C#N)c2)c(C(=O)N2CCC[C@@]2(C)c2nc3cc(C(F)(F)F)ccc3[nH]2)c1` [Ex. 5.190] were, in that order, 58 nM and 119 nM.
In the same order, the values of `C=C1CC(c2nc3cc(SC)ccc3[nH]2)N(C(=O)c2cc(C)sc2-c2ccc(C)c(C)c2)C1` (stereo not shown) [Ex. 6.73] are 10 nM and 4 nM.
As for `Cc1nc(C(=O)N2CC[C@H](C)[C@H]2c2nc3c(C(F)(F)F)cccc3[nH]2)c(-c2ccc(F)c(F)c2)s1` [Ex. 4.154], the results for the 50% inhibitory concentration (IC50) on human orexin-1 receptor and on human orexin-2 receptor were 26 nM and 4800 nM, respectively.
Regarding `COc1cc2nc([C@]3(C)CCCN3C(=O)c3cnc(C)nc3-c3cccc(C)c3)[nH]c2cc1OC` [Ex. 5.89], the concentration for half-maximal inhibition (IC50) is 148 nM at human orexin-1 receptor and 119 nM on human orexin-2 receptor.
In the same order, the values of `Cc1nc(C(=O)N2CCCC2c2nc3cc(C(C)(C)C)ccc3[nH]2)c(-c2ccccc2)s1` (stereo not shown) [Ex. 1.124] are 119 nM and 42 nM.
In the same order, the values of `COc1ccc(-c2ccc(C#N)cc2)c(C(=O)N2CCC[C@@]2(C)c2nc3c(C)c(Cl)ccc3[nH]2)c1F` [Ex. 5.308] are 21 nM and 122 nM.
As to `Cc1ccc2[nH]c([C@]3(C)CCCN3C(=O)c3ccccc3-c3cccc(F)c3)nc2c1C` [Ex. 5.116], the IC50 worked out at 39 nM at human orexin-1 receptor and 19 nM on human orexin-2 receptor.
The like results for `Cc1cc2nc([C@]3(C)CCCN3C(=O)c3ccccc3-c3ccccc3F)[nH]c2cc1C` [Ex. 5.103] were, in that order, 46 nM and 70 nM.
In the same order, the values of `C=C1CC(c2nc3c(C)c(C)ccc3[nH]2)N(C(=O)c2nc(C3CC3)sc2-c2cccc(C)c2)C1` (racemic) [Ex. 6.92] are 4 nM and 2 nM.
In the same order, the values of `Cc1cc(C)c2nc([C@@H]3CCCN3C(=O)c3nc(C)sc3-c3ccccc3)[nH]c2c1` [Ex. 1.142] are 24 nM and 13 nM.
In the case of `C=C1CN(C(=O)c2ccccc2-c2ccc(C)c(C)c2)C(C)(c2nc3cc(OC)ccc3[nH]2)C1` (stereo not shown) [Ex. 6.149], the concentration for half-maximal inhibition (IC50) is 59 nM on human orexin-1 receptor and 90 nM on human orexin-2 receptor.
In the same order, the values of `C=C1C[C@@H](c2nc3cc(C)c(C)cc3[nH]2)N(C(=O)c2ccc(C)cc2-n2nccn2)C1` [Ex. 6.198] are 12 nM and 3 nM.
In the same order, the values of `CSc1ccc2nc([C@@H]3CCCN3C(=O)c3ccccc3-n3nccn3)[nH]c2c1` [Ex. 1.47] are 446 nM and 13 nM.
Consider `Cc1ccc(-n2nccn2)c(C(=O)N2CC[C@H](C)[C@H]2c2nc3c(C)cc(C)cc3[nH]2)c1` [Ex. 4.33], for which the half-inhibitory concentration (IC50) is 9 nM on human orexin-1 receptor and 294 nM on human orexin-2 receptor.
Turning to `C=C1C[C@@H](c2nc3ccc(OC)cc3[nH]2)N(C(=O)c2cc(C)ccc2-n2cccn2)C1` [Ex. 6.137], the values for the IC50 on human orexin-1 receptor and on human orexin-2 receptor were 4950 nM and 23 nM, respectively.
On to `C=C1C[C@@H](c2nc3cccc(C)c3[nH]2)N(C(=O)c2cc(Cl)ccc2-n2nccn2)C1` [Ex. 6.102], for which the IC50 at human orexin-1 receptor stood at 364 nM; on human orexin-2 receptor, 32 nM.
In the same order, the values of `C=C1C[C@@H](c2nc3ccc(OC)cc3[nH]2)N(C(=O)c2c(-n3nccn3)ccc(C)c2F)C1` [Ex. 6.141] are 883 nM and 9 nM.
The like results for `Cc1nc(C(=O)N2CC[C@H](C)[C@H]2c2nc3c(C(F)(F)F)cccc3[nH]2)c(-c2ccc(Cl)cc2)s1` [Ex. 4.150] were, in that order, 6 nM and 180 nM.
As to `C=C1C[C@@H](c2nc3cc(C)c(C)cc3[nH]2)N(C(=O)c2c(C)cccc2-n2nccn2)C1` [Ex. 6.199], the IC50 at human orexin-1 receptor was found to be 143 nM; at human orexin-2 receptor, 6 nM.
In the case of `C=C1C[C@@H](c2nc3cccc(C)c3[nH]2)N(C(=O)c2nc(C)sc2-c2cccc(Br)c2)C1` [Ex. 6.104], the figures for the IC50 at human orexin-1 receptor and at human orexin-2 receptor were 13 nM and 0.8 nM, respectively.
The like results for `Cc1nc(C(=O)N2CCCC2c2nc3c(CO)cccc3[nH]2)c(-c2cccc(Cl)c2)s1` (stereo not shown) [Ex. 1.103] were, in that order, 364 nM and 112 nM.
In the case of `COc1ccc(-c2sc(C)nc2C(=O)N2CCC[C@@]2(C)c2nc3cc(OC)c(OC)cc3[nH]2)cn1` [Ex. 5.77], the half-inhibitory concentration (IC50) at human orexin-1 receptor was determined as 64 nM; on human orexin-2 receptor, 153 nM.
In the case of `COc1ccc2nc([C@@H]3CCCN3C(=O)c3nc(C)sc3-c3cccc(F)c3)[nH]c2c1` [Ex. 1.21], the IC50 on human orexin-1 receptor is 1180 nM; at human orexin-2 receptor it was 149 nM.
In the case of `Cc1ccc(-n2nccn2)c(C(=O)N2CC[C@H](C)[C@H]2c2nc3cccc(C)c3[nH]2)c1` [Example 4.1, (5-methyl-2-(2H-1,2,3-triazol-2-yl)phenyl)((2S,3S)-3-methyl-2-(7-methyl-1H-benzo[d]imidazol-2-yl)pyrrolidin-1-yl)methanone], the IC50 at human orexin-1 receptor turned out to be 29 nM; on human orexin-2 receptor, 778 nM.
The like results for `CO[C@@H]1C[C@@H](c2nc3ccc(Cl)c(C)c3[nH]2)N(C(=O)c2ccccc2-c2ccc(C)c(C)c2)C1` [Ex. 3.38] were, in that order, 6 nM and 13 nM.
As to `C[C@@]1(c2nc3cc(C(F)(F)F)ccc3[nH]2)CCCN1C(=O)c1cc(C#N)ccc1-n1nccn1` [Ex. 5.180], the IC50 at human orexin-1 receptor stood at 42 nM; at human orexin-2 receptor, 261 nM.
The like results for `C=C1C[C@@H](c2nc3cccc(C)c3[nH]2)N(C(=O)c2nc(C)ccc2-n2nccn2)C1` [Ex. 6.115] were, in that order, 333 nM and 9 nM.
For the compound `C=C1CC(c2nc3cccc(SC)c3[nH]2)N(C(=O)c2cc(C)sc2-c2ccc(C)c(C)c2)C1` (racemic) [Ex. 6.72], the half-inhibitory concentration (IC50) on human orexin-1 receptor turned out to be 4 nM; on human orexin-2 receptor it was 6 nM.
The like results for `Cc1c(Cl)ccc2[nH]c([C@]3(C)CCCN3C(=O)c3ccccc3-n3cccn3)nc12` [Ex. 5.42] were, in that order, 49 nM and 75 nM.
With `Cc1c(Cl)ccc2[nH]c([C@]3(C)CCCN3C(=O)c3nc(-c4cc(F)ccc4F)sc3-c3ccc(F)cc3)nc12` [Ex. 5.261], the results for the half-maximal inhibitory concentration (IC50) at human orexin-1 receptor and at human orexin-2 receptor were 4 nM and 466 nM, respectively.
Consider `COc1ccc2nc([C@@H]3CCCN3C(=O)c3cncnc3-c3ccc(Br)c(Cl)c3)[nH]c2c1` [Ex. 1.30], for which the values for the 50% inhibitory concentration (IC50) on human orexin-1 receptor and on human orexin-2 receptor were 624 nM and 147 nM, respectively.
The like results for `Cc1cccc(-c2sc(C)nc2C(=O)N2CC[C@H](C)[C@H]2c2nc3c(Cl)cccc3[nH]2)c1` [Ex. 4.122] were, in that order, 3 nM and 610 nM.
In the case of `Cc1nc(C(=O)N2CCCC2c2nc3c(C)c(Cl)ccc3[nH]2)c(-c2cccc(Cl)c2)s1` (stereo not shown) [Ex. 1.109], the figures for the IC50 on human orexin-1 receptor and on human orexin-2 receptor were 5 nM and 10 nM, respectively.
In the same order, the values of `Cc1ccc(-n2nccn2)c(C(=O)N2CC[C@H](C)[C@H]2c2nc3c(C)c(Cl)ccc3[nH]2)c1` [Ex. 4.35] are 3 nM and 193 nM.
The like results for `CSc1cccc2nc([C@@H]3CCCN3C(=O)c3nccnc3-c3cccc(C(F)(F)F)c3)[nH]c12` [Ex. 1.73] were, in that order, 136 nM and 282 nM.
For `C[C@@]1(c2nc3cc(C(F)(F)F)c(Cl)cc3[nH]2)CCCN1C(=O)c1cc(C(F)(F)F)ccc1-n1nccn1` [Ex. 5.144], the half-maximal inhibitory concentration (IC50) was determined as 20 nM at human orexin-1 receptor and 210 nM on human orexin-2 receptor.
As to `Cc1ccc(-n2cccn2)c(C(=O)N2CCC[C@@]2(C)c2nc3cc(C(F)(F)F)ccc3[nH]2)c1` [Ex. 5.175], the IC50 on human orexin-1 receptor was found to be 24 nM; on human orexin-2 receptor it was 355 nM.
